Experimental findings from US20200331882A1, “COMPOUND FOR SIMULTANEOUSLY INHIBITING LSD1 AND HDAC TARGETS AND APPLICATION THEREOF” (PEKING UNIVERSITY SHENZHEN GRADUATE SCHOOL, priority 2018, published 2020) are described below.

Experiment [1] relates to human breast cancer cell line MDA-MB-231. In words: MTT tumor cell proliferation. It counts as cell-based. Conditions: Homo sapiens, 72 h. The source says: (§1) MTT colorimetric method was used to detect the inhibitory activity of a series of compounds (i.e. ZZY-001 to ZZY-016, a total of 16 kinds) of the embodiment of the present invention on the proliferation of tumor cells in vitro. The full name of MTT is 3-(4,5-dimethyl-2-thiazolyl)-2,5-diphenyl-2-H-tetrazolium romide, which is a yellow dye also known as thiazolyl blue. […] DMSO can dissolve Formazan deposited in cells and the absorbance value can be measured with a enzyme marker at a wavelength of 490 nm. In a certain range of cell number, the production of Formazan is proportional to the number of cells, so the number of living cells can be inferred according to the measured OD value.
In the experiments of this embodiment, the selected cell lines are human breast cancer cell line MDA-MB-231 and BT-474, human colon adenocarcinoma cell HCT116, mouse colon cancer cell CT26.WT, mouse breast cancer cell 4T1. During the test, the cells in logarithmic phase and in good condition were digested with 0.25% trypsin digestion solution to make the adherent cells fall off, and the cell suspension (suspension cells without trypsin digestion) was made by counting 2-4×10^4 cells/ml. The cell suspension was inoculated on a 96-well plate at 100 μl/well and cultured in a constant temperature CO2 incubator for 24 h. Then the tested drugs were added, 100 μl/well, and cultured for 72 h. MTT was added to a 96-well plate, 20 μl/well, and reacted for 4 h in the incubator. Absorb the supernatant, add DMSO, 150 μl/well and shake for 10 min on the plate shaker. The optical density (OD value) of each well was measured by enzyme marker at the wavelength of 490 nm. […]

The target in the next experiment is T1, HDAC1 (Homo sapiens, UniProt Q13547).
T1 construct: purchased Enzo Biochem Inc
T1 sequence (Q13547 whole entry): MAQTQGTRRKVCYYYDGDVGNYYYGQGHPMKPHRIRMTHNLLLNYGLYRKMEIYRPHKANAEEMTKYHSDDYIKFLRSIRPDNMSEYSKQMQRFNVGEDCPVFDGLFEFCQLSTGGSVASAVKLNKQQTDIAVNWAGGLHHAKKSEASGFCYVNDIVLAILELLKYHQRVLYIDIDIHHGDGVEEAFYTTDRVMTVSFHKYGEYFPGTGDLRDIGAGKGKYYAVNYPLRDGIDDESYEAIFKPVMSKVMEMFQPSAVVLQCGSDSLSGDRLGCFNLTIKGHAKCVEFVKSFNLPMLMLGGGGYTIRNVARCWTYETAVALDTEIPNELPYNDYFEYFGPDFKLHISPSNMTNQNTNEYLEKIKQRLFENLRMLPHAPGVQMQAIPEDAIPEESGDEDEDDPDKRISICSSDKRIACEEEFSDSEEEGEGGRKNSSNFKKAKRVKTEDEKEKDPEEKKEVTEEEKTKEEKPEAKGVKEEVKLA
In words: In vitro HDAC1 inhibitory activity, FLUOR DE LYS HDAC1 fluorometric assay kit. It counts as biochemical. Conditions: HDAC1 enzyme activity in vitro. From the text: The principle was shown in the following reaction formula: HDAC1 catalyzes the deacetylation of a substrate FLUOR DE LYS® Substrate (containing an acetylated side chain), the product can react with FLUOR DE LYS® Developer II to generate fluorescence (shown in the following reaction process), and the inhibitory activity of a molecule to be detected on HDAC1 can be indirectly obtained by detecting the fluorescence intensity of the product. In this experiment, 360 nm was selected as the excitation wavelength and 460 nm as the emission wavelength for detection. FLUOR DE LYS® HDAC1 fluorometric drug discovery assay kit required for experiments was purchased from Enzo Biochem Inc.
During the test, the sample was prepared according to the specific experimental conditions of blocking the HDAC1 enzyme activity of the compound of the present invention in vitro in accordance with Table 2 below.

Experiment [2] concerns human colon adenocarcinoma cell HCT116. In words: MTT tumor cell proliferation. Conditions: Homo sapiens, HCT-116, 72 h. Type of experiment: cell-based.
From the text: as §1
(§2) The cell suspension was inoculated on a 96-well plate at 100 μl/well and cultured in a constant temperature CO2 incubator for 24 h. Then the tested drugs were added, 100 μl/well, and cultured for 72 h. MTT was added to a 96-well plate, 20 μl/well, and reacted for 4 h in the incubator. Absorb the supernatant, add DMSO, 150 μl/well and shake for 10 min on the plate shaker. The optical density (OD value) of each well was measured by enzyme marker at the wavelength of 490 nm.

The subject of experiment [3] is mouse colon cancer cell CT26.WT. In words: MTT tumor cell proliferation. It counts as cell-based. Conditions: Mus musculus, 72 h.
From the text: as §1, §2

For experiment [4], the system named is mouse breast cancer cell 4T1. The experiment can be described thus: MTT tumor cell proliferation. Conditions: Mus musculus, 72 h. It counts as cell-based.
From the text: as §1, §2

Experiment [5] concerns human breast cancer cell line BT-474. In words: MTT tumor cell proliferation. Conditions: Homo sapiens, 72 h. It counts as cell-based.
From the text: as §1, §2

The target in experiment [6] is T2, recombinant human LSD1 protein (Homo sapiens, UniProt O60341).
T2 construct: made in house; host or cells: E. coli
The experiment can be described thus: In vitro LSD1 inhibitory activity, LSD1-HRP coupling reaction (Amplex Red). It counts as biochemical. Conditions: LSD1 enzyme activity in vitro; 30 min preincubation; H3K4Me2 peptide. The source says:
LSD1 activity was detected by using LSD1-HRP coupling reaction. […] During the reduction of H2O2 to H2O, Amplex Red acts as an electron donor and oxidizes to Resorufin for detection of fluorescence. […] Ampliflu™ Red, peroxidase, from horseradish required for the experiment was purchased from SIGMA; H3K4Me2 substrate peptide was purchased from GL Biochemical (Shanghai) Co., Ltd.

A word on the IC50: it is the midpoint of a concentration-inhibition curve. As for `Cc1ccc(C(=O)Nc2cc(N3CCNCC3)ccc2-c2ccc(/C=C/C(=O)NO)cc2C)cc1.Cl` [ZZY-003], the IC50 in experiment [1] was found to be 836 nM; against HDAC1, 180 nM; in experiment [2] it was 265 nM; in experiment [3], 8760 nM; in experiment [4], 2380 nM; in experiment [5], 1860 nM. Also, in experiment [6], the IC50 was 440 nM.
